Data from PubChem BioAssay (NCI).
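Growth conditions: 96-well plates. Treatment: test compound, 48 hours, 5 concentrations. Analysis: linear interpolation between bracketing concentrations; unreached endpoints set to highest concentration. The concentration for 50% growth inhibition is given as GI50. TGI is the concentration that stops growth completely.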

Legend:
Experiment in all cases: NCI anticancer screen, dose series, 48 h
[1] = tested on: SR leukemia
[2] = tested on: SF-268 CNS
[3] = tested on: TK-10 renal
[4] = tested on: CCRF-CEM leukemia
[5] = tested on: SK-MEL-5 melanoma
[6] = tested on: NCI-H226 lung
[7] = tested on: MDA-MB-435
[8] = tested on: HS 578T breast
[9] = tested on: SN12C renal
[10] = tested on: HOP-62 NSCLC
[11] = tested on: HCT-15 colon
[12] = tested on: RXF 393 renal
[13] = tested on: SK-MEL-2 melanoma
[14] = tested on: HCT-116 colon
[15] = tested on: CAKI-1 renal
[16] = tested on: M14 melanoma
[17] = tested on: UO-31 renal
[18] = tested on: RPMI-8226 leukemia
[19] = tested on: ACHN renal
[20] = tested on: IGROV1 ovarian
[21] = tested on: A549 NSCLC
[22] = tested on: 786-0 renal
[23] = tested on: LOX IMVI melanoma
[24] = tested on: T-47D breast
[25] = tested on: MOLT-4 leukemia
[26] = tested on: COLO 205 colon
[27] = tested on: EKVX NSCLC
[28] = tested on: MDA-MB-231 breast
[29] = tested on: K-562 leukemia
[30] = tested on: OVCAR-3 ovarian
[31] = tested on: SK-MEL-28 melanoma
[32] = tested on: HL-60(TB) leukemia
[33] = tested on: UACC-62 melanoma
[34] = tested on: U251 CNS
[35] = tested on: SF-539 CNS
[36] = tested on: NCI-H23 lung
[37] = tested on: A498 renal
[38] = tested on: SW-620 colon
[39] = tested on: NCI-H522 lung
[40] = tested on: SK-OV-3 ovarian
[41] = tested on: SNB-75 CNS
[42] = tested on: OVCAR-4 ovarian
[43] = tested on: SNB-19 CNS
[44] = tested on: DU-145 prostate
[45] = tested on: HT29 colon
[46] = tested on: BT-549 breast
[47] = tested on: SF-295 CNS
[48] = tested on: PC-3 prostate
[49] = tested on: OVCAR-5 ovarian
[50] = tested on: NCI/ADR-RES ovarian
[51] = tested on: HOP-92 NSCLC
[52] = tested on: NCI-H460 lung
[53] = tested on: MCF7 breast
[54] = tested on: HCC-2998 colon

Clc1nc(Cl)c2ncn(CC#CCn3cnc4c(Cl)nc(Cl)nc43)c2n1
GI50 [1]: 0.38 µM
TGI [1]: 2.19 µM
GI50 [2]: 1.89 µM
TGI [2]: 3.76 µM
GI50 [3]: 5.51 µM
TGI [3]: 17.8 µM
GI50 [4]: 1.9 µM
TGI [4]: 3.89 µM
GI50 [5]: 11.1 µM
TGI [5]: 23.3 µM
GI50 [6]: 3.18 µM
TGI [6]: 7.94 µM
GI50 [7]: 3.25 µM
TGI [7]: 8.56 µM
GI50 [8]: 2.49 µM
TGI [8]: 6.79 µM
GI50 [9]: 2.66 µM
TGI [9]: 6.5 µM
GI50 [10]: 1.9 µM
TGI [10]: 3.89 µM
GI50 [11]: 1.99 µM
TGI [11]: 4.06 µM
GI50 [12]: 1.35 µM
TGI [12]: 2.98 µM
GI50 [13]: 2.53 µM
TGI [13]: 5.55 µM
GI50 [14]: 1.78 µM
TGI [14]: 3.42 µM
GI50 [15]: 2.05 µM
TGI [15]: 3.91 µM
GI50 [16]: 2.6 µM
TGI [16]: 5.62 µM
GI50 [17]: 1.67 µM
TGI [17]: 3.31 µM
GI50 [18]: 2.09 µM
TGI [18]: 5.07 µM
GI50 [19]: 1.9 µM
TGI [19]: 3.32 µM
GI50 [20]: 1.54 µM
TGI [20]: 3.37 µM
GI50 [21]: 2.49 µM
TGI [21]: 9.32 µM
GI50 [22]: 3.46 µM
TGI [22]: 11.4 µM
GI50 [23]: 1.86 µM
TGI [23]: 3.41 µM
GI50 [24]: 1.85 µM
TGI [24]: 4.13 µM
GI50 [25]: 0.554 µM
TGI [25]: 2.48 µM
GI50 [26]: 1.7 µM
TGI [26]: 3.36 µM
GI50 [27]: 2.6 µM
TGI [27]: 6.2 µM
GI50 [28]: 2.42 µM
TGI [28]: 4.93 µM
GI50 [29]: 2.39 µM
TGI [29]: 6.24 µM
GI50 [30]: 2.06 µM
TGI [30]: 3.71 µM
GI50 [31]: 1.82 µM
TGI [31]: 3.39 µM
GI50 [32]: 2.41 µM
TGI [32]: > 100 µM
GI50 [33]: 1.96 µM
TGI [33]: 3.66 µM
GI50 [34]: 2.28 µM
TGI [34]: 4.75 µM
GI50 [35]: 2.56 µM
TGI [35]: 6.86 µM
GI50 [36]: 3.05 µM
TGI [36]: 8.52 µM
GI50 [37]: 10.6 µM
TGI [37]: 23 µM
GI50 [38]: 1.84 µM
TGI [38]: 3.46 µM
GI50 [39]: 1.56 µM
TGI [39]: 3.51 µM
GI50 [40]: 10.5 µM
TGI [40]: 22.5 µM
GI50 [41]: 2.87 µM
TGI [41]: 7.76 µM
GI50 [42]: 1.89 µM
TGI [42]: 3.36 µM
GI50 [43]: 2.01 µM
TGI [43]: 4.25 µM
GI50 [44]: 1.78 µM
TGI [44]: 3.23 µM
GI50 [45]: 1.89 µM
TGI [45]: 3.69 µM
GI50 [46]: 3.3 µM
TGI [46]: 11.3 µM
GI50 [47]: 6.69 µM
TGI [47]: 20.4 µM
GI50 [48]: 3.61 µM
TGI [48]: 11.1 µM
GI50 [49]: 10.5 µM
TGI [49]: 25.6 µM
GI50 [50]: 3.73 µM
TGI [50]: 24.1 µM
GI50 [51]: 2.21 µM
TGI [51]: 4.02 µM
GI50 [52]: 3.41 µM
TGI [52]: 12.4 µM
GI50 [53]: 2.18 µM
TGI [53]: 5.96 µM
GI50 [54]: 2.08 µM
TGI [54]: 4.05 µM
